In patent US20240050428A1 (Cullgen (Shanghai), Inc., priority 2020, published 2024):
Where two headings read alike, the source gives them in different places.

Tests used:
MOLM-13 cells = assay: Cell viability assay (CellTiter-Glo) in MOLM-13 cells, alone or with gilteritinib; format: cell-based; conditions: Homo sapiens, MOLM-13 cells, three days, CellTiter-Glo
MV4;11 cells = assay: Cell viability assay (CellTiter-Glo) in MV4;11 cells, alone or with gilteritinib; format: cell-based; conditions: Homo sapiens, MV4;11 cells, three days, CellTiter-Glo, read-out: MV4
[1] = MOLM-13, 72 h, compound alone (without gilteritinib), read-out: MOLM-13 IC50
[2] = MOLM-13, 72 h, with gilteritinib 20 nM, read-out: MOLM-13 IC50 gilteritinib
[3] = MV4-11, 72 h, compound alone (without gilteritinib), 11 IC50
[4] = MV4-11, 72 h, with gilteritinib 10 nM, 11 IC50 gilteritinib
[5] = 72 h, compound alone (without gilteritinib), read-out: MOLM-13 IC50
[6] = 72 h, with gilteritinib 20 nM, read-out: MOLM-13 IC50 gilteritinib
[7] = 72 h, compound alone (without gilteritinib), 11 IC50
[8] = 72 h, with gilteritinib 10 nM, 11 IC50 gilteritinib

SMILES	IC50 (MOLM-13 cells; [1])	IC50 (MOLM-13 cells; [2])	IC50 (MV4;11 cells; [3])	IC50 (MV4;11 cells; [4])	IC50 (MOLM-13 cells; [5])	IC50 (MOLM-13 cells; [6])	IC50 (MV4;11 cells; [7])	IC50 (MV4;11 cells; [8])
O=C1CCC(N2C(=O)c3ccc(NCCCCC(=O)N4C5CCC4CC(n4cc(-c6cnc7ccccc7n6)cn4)C5)cc3C2=O)C(=O)N1 (stereo not shown) [GS-136, 2-(2,6-Dioxopiperidin-3-yl)-5-((5-oxo-5-(3-(4-(quinoxalin-2-yl)-1H-pyrazol-1-yl)-8-azabicyclo[3.2.1]octan-8-yl)pentyl)amino)isoindoline-1,3-dione]	> 1000 nM	> 1000 nM	> 1000 nM	> 1000 nM				
O=C1CCC(N2Cc3cc(NCCCCC4(N5CCC(n6cc(-c7cnc8ccccc8n7)cn6)CC5)CC4)ccc3C2=O)C(=O)N1 (stereo not shown) [GS-137, 3-(1-Oxo-5-((4-(1-(4-(4-(quinoxalin-2-yl)-1H-pyrazol-1-yl)piperidin-1-yl)cyclopropyl)butyl)amino)isoindolin-2-yl)piperidine-2,6-dione]	> 1000 nM	> 1000 nM	> 1000 nM	> 1000 nM				
O=C1CCC(N2Cc3cc(NCCCC4CC(n5cc(-c6cnc7ccccc7n6)cn5)C4)ccc3C2=O)C(=O)N1 (stereo not shown) [GS-140, 3-(1-Oxo-5-((3-(3-(4-(quinoxalin-2-yl)-1H-pyrazol-1-yl)cyclobutyl)propyl)amino)isoindolin-2-yl)piperidine-2,6-dione]	> 1000 nM	> 1000 nM	10 to 100 nM	100 to 1000 nM				
O=C1CCC(N2Cc3c(NC4CCCC(CCCCn5cc(-c6cnc7ccccc7n6)cn5)C4)cccc3C2=O)C(=O)N1 (stereo not shown) [GS-142, 3-(1-Oxo-4-((3-(4-(4-(quinoxalin-2-yl)-1H-pyrazol-1-yl)butyl)cyclohexyl)amino)isoindolin-2-yl)piperidine-2,6-dione]	> 1000 nM	> 1000 nM	> 1000 nM	> 1000 nM				
O=C1CCC(N2C(=O)c3ccc(NCC45CC(C(=O)N6CCC(n7cc(-c8cnc9ccccc9n8)cn7)CC6)(C4)C5)cc3C2=O)C(=O)N1 (stereo not shown) [GS-144, 2-(2,6-Dioxopiperidin-3-yl)-5-(((3-(4-(4-(quinoxalin-2-yl)-1H-pyrazol-1-yl)piperidine-1-carbonyl)bicyclo[1.1.1]pentan-1-yl)methyl)amino)isoindoline-1,3-dione]	> 1000 nM	100 to 1000 nM	100 to 1000 nM	10 to 100 nM				
O=C1CCC(N2C(=O)c3ccc(NCCCCC(=O)N4CCC(c5ccccc5)CC4)cc3C2=O)C(=O)N1 (stereo not shown) [GS-147, 2-(2,6-Dioxopiperidin-3-yl)-5-((5-oxo-5-(4-phenylpiperidin-1-yl)pentyl)amino)isoindoline-1,3-dione]					> 1000 nM	10 to 100 nM	> 1000 nM	100 to 1000 nM
O=C1CCC(N2C(=O)c3ccc(NCCCC(=O)N4CCC(c5ccccc5)CC4)cc3C2=O)C(=O)N1 (stereo not shown) [GS-148, 2-(2,6-Dioxopiperidin-3-yl)-5-((4-oxo-4-(4-phenylpiperidin-1-yl)butyl)amino)isoindoline-1,3-dione]					100 to 1000 nM	10 to 100 nM	> 1000 nM	100 to 1000 nM
O=C1CCC(N2C(=O)c3ccc(NCCc4cccc(N5CCC(n6cc(-c7cnc8ccccc8n7)cn6)CC5)c4)cc3C2=O)C(=O)N1 (stereo not shown) [GS-152, 2-(2,6-Dioxopiperidin-3-yl)-5-((3-(4-(4-(quinoxalin-2-yl)-1H-pyrazol-1-yl)piperidin-1-yl)phenethyl)amino)isoindoline-1,3-dione]	100 to 1000 nM	10 to 100 nM	100 to 1000 nM	10 to 100 nM				
O=C1CCC(N2Cc3c(NC4CCCC(CCCC(=O)N5CCC(n6cc(-c7cnc8ccccc8n7)cn6)CC5)C4)cccc3C2=O)C(=O)N1 (stereo not shown) [GS-154, 3-(1-Oxo-4-((3-(4-oxo-4-(4-(4-(quinoxalin-2-yl)-1H-pyrazol-1-yl)piperidin-1-yl)butyl)cyclohexyl)amino)isoindolin-2-yl)piperidine-2,6-dione]	> 1000 nM	> 1000 nM	> 1000 nM	> 1000 nM				
O=C1CCC(N2Cc3c(NC4CCCC(CCCn5cc(-c6cnc7ccccc7n6)cn5)C4)cccc3C2=O)C(=O)N1 (stereo not shown) [GS-157]	> 1000 nM	> 1000 nM	> 1000 nM	> 1000 nM				

Now from value to molecule, other results behind:

IC50 (MOLM-13 cells; [1])	IC50 (MOLM-13 cells; [2])	IC50 (MV4;11 cells; [3])	IC50 (MV4;11 cells; [4])	SMILES	IC50 (MOLM-13 cells; [5])	IC50 (MOLM-13 cells; [6])	IC50 (MV4;11 cells; [7])	IC50 (MV4;11 cells; [8])
> 1000 nM	> 1000 nM	> 1000 nM	> 1000 nM	CC(CCCNc1ccc2c(c1)C(=O)N(C1CCC(=O)NC1=O)C2=O)C(=O)N1CCC(n2cc(-c3cnc4ccccc4n3)cn2)CC1 (stereo not shown) [GS-138, 2-(2,6-Dioxopiperidin-3-yl)-5-((4-methyl-5-oxo-5-(4-(4-(quinoxalin-2-yl)-1H-pyrazol-1-yl)piperidin-1-yl)pentyl)amino)iaoindoline-1,3-dione]				
> 1000 nM	> 1000 nM	100 to 1000 nM	100 to 1000 nM	CC(C)(CCCNc1ccc2c(c1)C(=O)N(C1CCC(=O)NC1=O)C2=O)C(=O)N1CCC(n2cc(-c3cnc4ccccc4n3)cn2)CC1 (stereo not shown) [GS-139, 5-((4,4-Dimethyl-5-oxo-5-(4-(4-(quinoxalin-2-yl)-1H-pyrazol-1-yl)piperidin-1-yl)pentyl)amino)-2-(2,6-dioxopiperidin-3-yl)isoindoline-1,3-dione]				
> 1000 nM	> 1000 nM	> 1000 nM	> 1000 nM	O=C1CCC(N2C(=O)c3ccc(NCCCC4(C(=O)N5CCC(n6cc(-c7cnc8ccccc8n7)cn6)CC5)CC4)cc3C2=O)C(=O)N1 (stereo not shown) [GS-141, 2-(2,6-Dioxopiperidin-3-yl)-5-((3-(1-(4-(4-(quinoxalin-2-yl)-1H-pyrazol-1-yl)piperidine-1-carbonyl)cyclopropyl)propyl)amino)isondoline-1,3-dione]				
> 1000 nM	> 1000 nM	> 1000 nM	> 1000 nM	C[C@@H]1CC(n2cc(-c3cnc4ccccc4n3)cn2)C[C@H](C)N1C(=O)CCCCNc1ccc2c(c1)C(=O)N(C1CCC(=O)NC1=O)C2=O (stereo partly drawn) [GS-143, 5-((5-((2R,6S)-2,6-dimethyl-4-(4-(quinoxalin-2-yl)-1H-pyrazol-1-yl)piperidin-1-yl)-5-oxopentyl)amino)-2-(2,6-dioxopiperidin-3-yl)isoindoline-1,3-dione]				
100 to 1000 nM	< 10 nM	100 to 1000 nM	10 to 100 nM	O=C1CCC(N2C(=O)c3ccc(NCCCC(F)(F)C(=O)N4CCC(n5cc(-c6cnc7ccccc7n6)cn5)CC4)cc3C2=O)C(=O)N1 (stereo not shown) [GS-145, 5-((4,4-Difluoro-5-oxo-5-(4-(4-(quinoxalin-2-yl)-1H-pyrazol-1-yl)piperidin-1-yl)pentyl)amino)-2-(2,6-dioxopiperidin-3-yl)isoindoline-1,3-dione]				
100 to 1000 nM	10 to 100 nM	> 1000 nM	10 to 100 nM	Cc1nn(CCCCCCNc2ccc3c(c2)C(=O)N(C2CCC(=O)NC2=O)C3=O)c(C)c1-c1cnccn1 (stereo not shown) [GS-146, 5-((6-(3,5-Dimethyl-4-(pyrazin-2-yl)-1H-pyrazol-1-yl)hexyl)amino)-2-(2,6-dioxopiperidin-3-yl)isoindoline-1,3-dione]				
> 1000 nM	100 to 1000 nM	> 1000 nM	100 to 1000 nM	O=C1CCC(N2C(=O)c3ccc(NCCNC(=O)N4CCC(n5cc(-c6cnc7ccccc7n6)cn5)CC4)cc3C2=O)C(=O)N1 (stereo not shown) [GS-149, N-(2-((2-(2,6-dioxopiperidin-3-yl)-1,3-dioxoisoindolin-5-yl)amino)ethyl)-4-(4-(quinoxalin-2-yl)-1H-pyrazol-1-yl)piperidine-1-carboxamide]				
100 to 1000 nM	< 10 nM	100 to 1000 nM	10 to 100 nM	Cc1nn(CCCCCCNc2ccc3c(c2)C(=O)N(C2CCC(=O)NC2=O)C3=O)c(C)c1-c1ncccn1 (stereo not shown) [GS-150, 5-((6-(3,5-Dimethyl-4-(pyrimidin-2-yl)-1H-pyrazol-1-yl)hexyl)amino)-2-(2,6-dioxopiperidin-3-yl)isoindoline-1,3-dione]				
10 to 100 nM	< 10 nM	10 to 100 nM	< 10 nM	Cc1nn(CCCCCCNc2ccc3c(c2)C(=O)N(C2CCC(=O)NC2=O)C3=O)c(C)c1-c1ncc2ccccc2n1 (stereo not shown) [GS-151, 5-((6-(3,5-Dimethyl-4-(quinazolin-2-yl)-1H-pyrazol-1-yl)hexyl)amino)-2-(2,6-dioxopiperidin-3-yl)isoindoline-1,3-dione]				
> 1000 nM	10 to 100 nM	100 to 1000 nM	100 to 1000 nM	O=C1CCC(N2C(=O)c3ccc(NCCCCC(=O)N4CCC(n5cc(-c6cnc7ccccc7n6)cn5)CC45CC5)cc3C2=O)C(=O)N1 (stereo not shown) [GS-153, 2-(2,6-Dioxopiperidin-3-yl)-5-((5-oxo-5-(7-(4-(quinoxalin-2-yl)-1H-pyrazol-1-yl)-4-azaspiro[2.5]octan-4-yl)pentyl)amino)isoindoline-1,3-dione]				
> 1000 nM	100 to 1000 nM	100 to 1000 nM	> 1000 nM	O=C1CCC(N2C(=O)c3ccc(NCC4CCC(Cn5cc(-c6cnc7ccccc7n6)cn5)CC4)cc3C2=O)C(=O)N1 (stereo not shown) [GS-155, 2-(2,6-Dioxopiperidin-3-yl)-5-(((4-((4-(quinoxalin-2-yl)-1H-pyrazol-1-yl)methyl)cyclohexyl)methyl)amino)isoindoline-1,3-dione]				
> 1000 nM	< 10 nM	> 1000 nM	100 to 1000 nM	Cc1nn(C2CC(CCCNc3ccc4c(c3)C(=O)N(C3CCC(=O)NC3=O)C4=O)C2)c(C)c1-c1cnc2cccc(F)c2n1 (stereo not shown) [GS-156, 2-(2,6-Dioxopiperidin-3-yl)-5-((3-(3-(4-(8-fluoroquinoxalin-2-yl)-3,5-dimethyl-1H-pyrazol-1-yl)cyclobutyl)propyl)amino)isoindoline-1,3-dione]				
